Measurements from patent US7368443B2, “2,6-disubstituted piperidines and piperazine compounds” (University of Kentucky Research Foundation, priority 1999, dated 2008).
Where two headings read alike, the source gives them in different places.

What was measured:
VMAT2 [1] = molecular target: T1, VMAT2 (Rattus norvegicus, UniProt Q01827); assay: biochemical
α3β4* nicotinic receptor = α3β4* nicotinic receptor (Rattus norvegicus, UniProt P04757+P12392); assay: Nicotine-evoked [3H]NE overflow from superfused hippocampal slices; format: cell-based; conditions: inhibition of 10 μM S(−)-nicotine
Chain of α3β4* nicotinic receptor (P04757 26-499): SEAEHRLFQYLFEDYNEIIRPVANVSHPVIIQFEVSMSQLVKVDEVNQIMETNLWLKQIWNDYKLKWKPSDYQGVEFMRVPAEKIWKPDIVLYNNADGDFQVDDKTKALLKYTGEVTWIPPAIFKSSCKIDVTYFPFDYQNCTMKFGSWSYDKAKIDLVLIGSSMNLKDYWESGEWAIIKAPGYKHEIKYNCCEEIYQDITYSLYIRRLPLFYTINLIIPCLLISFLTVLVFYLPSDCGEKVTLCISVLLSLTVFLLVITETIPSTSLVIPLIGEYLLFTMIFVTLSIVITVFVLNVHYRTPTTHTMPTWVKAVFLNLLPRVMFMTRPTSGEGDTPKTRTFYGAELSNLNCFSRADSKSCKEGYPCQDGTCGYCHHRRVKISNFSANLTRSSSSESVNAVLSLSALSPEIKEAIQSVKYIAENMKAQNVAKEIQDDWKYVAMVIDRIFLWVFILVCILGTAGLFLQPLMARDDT
Chain of α3β4* nicotinic receptor (P12392 21-495): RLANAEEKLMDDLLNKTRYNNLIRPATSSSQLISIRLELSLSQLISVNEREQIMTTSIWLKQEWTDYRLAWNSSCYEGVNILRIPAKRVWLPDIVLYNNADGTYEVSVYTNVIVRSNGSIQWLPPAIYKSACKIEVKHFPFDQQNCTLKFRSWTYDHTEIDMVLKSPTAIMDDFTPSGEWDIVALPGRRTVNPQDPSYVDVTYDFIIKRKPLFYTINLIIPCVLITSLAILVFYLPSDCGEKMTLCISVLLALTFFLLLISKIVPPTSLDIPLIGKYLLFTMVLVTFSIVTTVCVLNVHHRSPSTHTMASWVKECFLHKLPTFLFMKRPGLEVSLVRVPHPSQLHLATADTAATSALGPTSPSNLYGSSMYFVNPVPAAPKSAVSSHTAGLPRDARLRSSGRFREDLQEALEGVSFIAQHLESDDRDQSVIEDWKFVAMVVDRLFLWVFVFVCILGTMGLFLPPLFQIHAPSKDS

α4β2* nicotinic receptor [2] = molecular target: T2, α4β2* nicotinic receptor (Rattus norvegicus, UniProt P09483+P12390); assay: High affinity [3H]nicotine binding assay; set-up: The pellet containing the striatal membranes was resuspended; from tissue; host or cells: rat striatal membranes
T2 sequence (P09483 31-630): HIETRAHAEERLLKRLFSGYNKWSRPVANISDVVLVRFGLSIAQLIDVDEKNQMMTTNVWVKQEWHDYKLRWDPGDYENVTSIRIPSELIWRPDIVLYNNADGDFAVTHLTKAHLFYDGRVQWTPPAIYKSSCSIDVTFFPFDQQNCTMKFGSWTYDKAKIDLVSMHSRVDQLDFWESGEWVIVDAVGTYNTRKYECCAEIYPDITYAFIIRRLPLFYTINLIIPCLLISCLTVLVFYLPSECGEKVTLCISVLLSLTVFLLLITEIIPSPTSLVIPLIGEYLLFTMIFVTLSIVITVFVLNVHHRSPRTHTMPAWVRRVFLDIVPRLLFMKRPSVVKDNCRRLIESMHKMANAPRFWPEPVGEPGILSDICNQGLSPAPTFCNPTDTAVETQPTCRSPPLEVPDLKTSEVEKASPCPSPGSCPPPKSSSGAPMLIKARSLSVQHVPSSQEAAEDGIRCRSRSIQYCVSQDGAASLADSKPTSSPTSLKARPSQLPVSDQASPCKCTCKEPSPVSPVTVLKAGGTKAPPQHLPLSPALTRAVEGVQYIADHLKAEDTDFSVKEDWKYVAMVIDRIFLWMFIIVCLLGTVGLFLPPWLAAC
T2 sequence (P12390 25-500): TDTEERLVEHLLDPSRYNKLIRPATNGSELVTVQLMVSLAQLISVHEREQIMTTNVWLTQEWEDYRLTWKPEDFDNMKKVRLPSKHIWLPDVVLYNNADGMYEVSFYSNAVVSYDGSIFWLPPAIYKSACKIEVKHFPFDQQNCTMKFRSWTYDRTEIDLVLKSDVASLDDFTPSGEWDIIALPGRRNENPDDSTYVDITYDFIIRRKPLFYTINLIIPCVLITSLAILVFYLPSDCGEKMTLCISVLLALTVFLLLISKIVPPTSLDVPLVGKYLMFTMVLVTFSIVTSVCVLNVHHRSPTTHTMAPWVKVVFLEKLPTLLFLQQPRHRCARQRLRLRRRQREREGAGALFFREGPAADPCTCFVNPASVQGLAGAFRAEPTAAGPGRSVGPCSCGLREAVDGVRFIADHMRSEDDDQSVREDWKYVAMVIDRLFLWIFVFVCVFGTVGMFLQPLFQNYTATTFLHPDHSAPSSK

[3] = tested on: methamphetamine-evoked endogenous DA release from striatal slices; assay: Methamphetamine-evoked endogenous DA overflow from superfused striatal slices; format: cell-based; conditions: read-out: Inhibition of Methamphetamine Evoked DA Overflow IC50 (Mean)
α4β2* nicotinic receptor [4] = molecular target: T2, α4β2* nicotinic receptor; assay: Nicotine-evoked 86Rb+ efflux assay, thalamic synaptosomes; format: biochemical; set-up: from tissue; conditions: read-out: Inhibition of Nicotine-Evoked 86Rb+ Efflux (IC50) α4β2*
α6β2* nicotinic receptor = α6β2* nicotinic receptor (Rattus norvegicus, UniProt P12390+P43143); assay: Nicotine-evoked [3H]DA overflow from superfused striatal slices; format: cell-based
Chain of α6β2* nicotinic receptor (P43143 31-493): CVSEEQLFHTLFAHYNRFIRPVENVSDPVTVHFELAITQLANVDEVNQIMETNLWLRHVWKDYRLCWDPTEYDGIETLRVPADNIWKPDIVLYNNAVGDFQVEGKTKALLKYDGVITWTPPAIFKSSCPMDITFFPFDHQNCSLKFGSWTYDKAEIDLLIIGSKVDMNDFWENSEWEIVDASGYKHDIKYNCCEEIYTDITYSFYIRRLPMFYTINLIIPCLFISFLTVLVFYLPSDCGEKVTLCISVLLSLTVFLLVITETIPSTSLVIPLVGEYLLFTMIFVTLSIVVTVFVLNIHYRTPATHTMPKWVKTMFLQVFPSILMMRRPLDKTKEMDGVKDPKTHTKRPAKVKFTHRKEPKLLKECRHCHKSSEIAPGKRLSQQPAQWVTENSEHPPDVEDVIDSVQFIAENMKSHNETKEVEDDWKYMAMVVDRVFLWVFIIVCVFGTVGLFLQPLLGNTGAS
Chain of α6β2* nicotinic receptor (P12390 25-500): as the sequence (P12390 25-500) above

[5] = molecular target: T3, dopamine transporter (DAT) (Rattus norvegicus, UniProt P23977); assay: [3H]Dopamine uptake assay, striatal synaptosomes; format: biochemical
T3 construct: Striata were homogenized in 20 ml of ice-cold sucrose solution; from tissue; host or cells: striatal synaptosomes
T3 sequence (P23977 whole entry): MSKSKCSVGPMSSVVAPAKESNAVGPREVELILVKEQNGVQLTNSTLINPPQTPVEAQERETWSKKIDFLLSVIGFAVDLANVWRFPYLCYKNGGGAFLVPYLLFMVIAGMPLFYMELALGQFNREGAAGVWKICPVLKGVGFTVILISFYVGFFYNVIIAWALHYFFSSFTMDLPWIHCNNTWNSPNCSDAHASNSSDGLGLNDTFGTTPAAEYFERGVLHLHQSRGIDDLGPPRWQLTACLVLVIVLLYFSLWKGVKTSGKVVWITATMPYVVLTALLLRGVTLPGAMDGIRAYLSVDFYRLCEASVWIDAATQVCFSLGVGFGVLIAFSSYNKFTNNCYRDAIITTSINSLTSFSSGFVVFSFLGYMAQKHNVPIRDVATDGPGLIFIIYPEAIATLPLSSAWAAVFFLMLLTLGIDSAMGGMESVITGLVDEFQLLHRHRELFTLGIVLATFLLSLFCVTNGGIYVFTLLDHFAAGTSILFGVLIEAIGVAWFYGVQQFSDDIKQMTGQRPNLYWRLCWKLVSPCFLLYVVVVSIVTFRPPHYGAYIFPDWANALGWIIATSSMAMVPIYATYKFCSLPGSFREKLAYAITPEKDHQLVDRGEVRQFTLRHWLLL

[6] = molecular target: T4, serotonin transporter (SERT) (Rattus norvegicus, UniProt P31652); assay: [3H]5-HT uptake assay, hippocampal synaptosomes; format: biochemical; conditions: for IC50: Table 4, earlier studies
T4 construct: Rat hippocampus was homogenized in 20 mL cold 0.32 M sucrose; from tissue; host or cells: rat hippocampal synaptosomes
T4 sequence (P31652 whole entry): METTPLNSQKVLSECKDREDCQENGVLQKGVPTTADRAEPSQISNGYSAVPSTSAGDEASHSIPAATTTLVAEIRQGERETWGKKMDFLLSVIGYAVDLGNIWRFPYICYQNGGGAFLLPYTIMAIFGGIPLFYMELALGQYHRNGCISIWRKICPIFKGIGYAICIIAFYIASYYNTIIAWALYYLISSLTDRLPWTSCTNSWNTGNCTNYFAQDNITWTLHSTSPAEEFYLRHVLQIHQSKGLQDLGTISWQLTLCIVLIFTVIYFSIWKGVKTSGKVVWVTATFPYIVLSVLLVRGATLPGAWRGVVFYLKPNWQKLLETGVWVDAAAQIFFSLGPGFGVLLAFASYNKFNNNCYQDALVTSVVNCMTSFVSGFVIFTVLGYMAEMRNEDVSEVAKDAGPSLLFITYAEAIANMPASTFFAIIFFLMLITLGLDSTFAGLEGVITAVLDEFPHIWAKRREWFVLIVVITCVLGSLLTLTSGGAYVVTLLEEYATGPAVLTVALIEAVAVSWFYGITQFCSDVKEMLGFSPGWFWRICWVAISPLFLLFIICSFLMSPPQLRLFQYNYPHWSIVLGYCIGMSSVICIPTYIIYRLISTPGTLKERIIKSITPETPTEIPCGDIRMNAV

α7* nicotinic receptor = molecular target: T5, α7* nicotinic receptor (Rattus norvegicus, UniProt Q05941); assay: [3H]Methyllycaconitine ([3H]MLA) binding assay; conditions: Table 1; rat whole brain membranes; read-out: [3H]MLA Binding (Ki) α7*
T5 construct: Whole rat brain (minus cortex, striatum and cerebellum) was homogenized; from tissue; host or cells: rat whole brain membranes (minus cortex, striatum and cerebellum)
T5 sequence (Q05941 23-502): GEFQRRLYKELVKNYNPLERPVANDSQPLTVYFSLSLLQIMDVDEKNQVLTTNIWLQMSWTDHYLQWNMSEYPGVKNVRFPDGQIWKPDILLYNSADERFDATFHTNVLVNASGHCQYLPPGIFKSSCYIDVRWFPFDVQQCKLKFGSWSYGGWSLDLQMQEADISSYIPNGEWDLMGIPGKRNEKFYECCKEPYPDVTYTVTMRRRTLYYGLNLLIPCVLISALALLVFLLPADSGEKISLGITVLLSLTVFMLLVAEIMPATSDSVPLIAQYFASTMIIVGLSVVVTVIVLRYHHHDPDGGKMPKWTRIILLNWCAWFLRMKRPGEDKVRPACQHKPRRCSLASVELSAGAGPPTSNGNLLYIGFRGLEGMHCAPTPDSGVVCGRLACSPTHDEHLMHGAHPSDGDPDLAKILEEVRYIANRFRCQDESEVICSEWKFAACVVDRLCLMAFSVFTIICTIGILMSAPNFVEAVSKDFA

VMAT2 [7] = molecular target: T1, VMAT2; assay: [3H]Dihydrotetrabenazine ([3H]DTBZ) binding assay, synaptic vesicles; conditions: inhibition of [3H]DTBZ binding Ki, text b58
[8] = Table 1, rat striatal membranes, read-out: [3H]Nicotine Binding (Ki) α4β2*
[9] = Table 3, earlier study, read-out: Ki [3H]-Nicotine Binding Assay
[10] = Table 4, earlier studies, read-out: [3H]Nicotine Binding (Ki) α4β2*
[11] = inhibition of nicotine-evoked [3H]DA overflow IC50
[12] = Table 1, read-out: [3H]DA Uptake (Ki)
[13] = Table 3, earlier study, read-out: Ki [3H]-Dopamine Uptake Assay
[14] = Table 1, read-out: [3H]5-HT Uptake (Ki) SERT
[15] = Table 1, inhibition of 10 μM S(−)-nicotine, NI: no inhibition, read-out: Inhibition of Nicotine-Evoked [3H]DA Overflow (IC50) α6β2*

T1 sequence (Q01827 whole entry, the tested form may be a part): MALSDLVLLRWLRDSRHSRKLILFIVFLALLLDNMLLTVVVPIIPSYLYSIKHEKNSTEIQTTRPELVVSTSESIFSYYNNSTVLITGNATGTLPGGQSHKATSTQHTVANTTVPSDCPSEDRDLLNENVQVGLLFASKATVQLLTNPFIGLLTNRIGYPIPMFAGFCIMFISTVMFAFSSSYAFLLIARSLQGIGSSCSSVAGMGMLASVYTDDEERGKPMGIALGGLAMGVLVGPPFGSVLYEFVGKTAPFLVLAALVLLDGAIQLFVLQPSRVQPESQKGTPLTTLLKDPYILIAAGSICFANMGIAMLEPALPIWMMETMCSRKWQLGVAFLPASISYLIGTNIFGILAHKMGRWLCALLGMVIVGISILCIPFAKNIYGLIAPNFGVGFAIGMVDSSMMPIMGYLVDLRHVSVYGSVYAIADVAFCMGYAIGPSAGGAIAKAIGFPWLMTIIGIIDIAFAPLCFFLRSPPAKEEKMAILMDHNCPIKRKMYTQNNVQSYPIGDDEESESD

| Compound | IC50 (VMAT2 [1]) [nM] | IC50 (α3β4* nicotinic receptor; Table 1) [nM] | Ki (α4β2* nicotinic receptor [2]; [8]) [nM] | Ki (α4β2* nicotinic receptor [2]; [9]) [nM] | Ki (α4β2* nicotinic receptor [2]; [10]) [nM] | IC50 ([3]; Rattus norvegicus) [nM] | IC50 (α4β2* nicotinic receptor [4]) [nM] | selectivity as inhibitor of α6β2* (and α3β4*) subtypes of nAChR compared to inhibition of SERT function (α6β2* nicotinic receptor) [fold] | selectivity for the α6β2* subtype of nAChR relative to interaction with the MTBZ site on VMAT2 (α6β2* nicotinic receptor) [fold] | selectivity for α6β2* (and α3β4*) subtypes of nAChR compared to α4β2* or α7* subtypes (α6β2* nicotinic receptor) [fold] | IC50 (α6β2* nicotinic receptor; [11]) [nM] | Ki [5, 12] [nM] | Ki [5, 13] [nM] | Ki [6, 14] [nM] | IC50 [6] [nM] | Ki (α7* nicotinic receptor) [nM] | Ki (VMAT2 [7]) [nM] | IC50 (α6β2* nicotinic receptor; [15]) [nM] | other results |
| --- | --- | --- | --- | --- | --- | --- | --- | --- | --- | --- | --- | --- | --- | --- | --- | --- | --- | --- | --- |
| CN1[C@H](/C=C/c2ccccc2)CCC[C@@H]1/C=C/c1ccccc1 [Compound 14, N-methyl-2,6-cis-di-trans-styrylpiperidine] | 1290 | 10 | > 100000 | > 100000 | 11000 | 430 to 1250 | > 10000 | 770 | 43 | > 370 | 0.3 | 580 | 800 | 8940 | 23200 |  |  |  | melting point: 149 to 150 °C; IC50 (α3β4* nicotinic receptor; Table 4, earlier studies): 21 nM; IC50 ([3]; superfused rat striatal slices): 700 nM; IC50 (α6β2* nicotinic receptor; Inhibition of Nicotine-Evoked [3H]DA Overflow (IC50) α6β2*): 30 nM; more potent at inhibiting nicotine-evoked [3H]DA and [3H]NE release compared to Compound 15 (α6β2* nicotinic receptor; rat striatal and hippocampal slices, earlier data): 18 fold |
| CN1[C@@H](CC(=O)c2ccccc2)CCC[C@H]1/C=C/c1ccccc1 [Compound 5, N-methyl-2R-phenacyl-6S-trans-styrylpiperidine] |  |  | 440 | 130 |  |  | 300 |  |  |  |  | 1740 | 3000 | 1860 |  | 34200 |  |  | inhibition of DAT, potency compared with lobeline ([5]; Table 1 data): 17 fold; inhibition of DAT, potency compared with lobeline ([5]; earlier study (Table 3)): 10 fold |
| COc1ccccc1CC[C@H]1CCC[C@@H](CCc2ccccc2OC)N1C [Compound 37, N-methyl-2,6-cis-di-(o-methoxyphenethyl)piperidine] |  |  | > 100000 |  |  |  |  |  |  |  |  |  |  |  |  | 26000 | 430 to 680 |  |  |
| CN1[C@H](/C=C/c2ccccc2)CCC[C@H]1/C=C/c1ccccc1 [Compound 15, N-methyl-2S,6S-trans-di-trans-styrylpiperidine] | 5150 | 30 | 11900 |  | 13000 | > 100000 |  | 2.2 | 9.5 | > 24 | 100 to 1000 | 260 |  | 380 | 1190 |  |  | 1000 | loss of affinity for the nicotinic receptor compared to lobeline (α4β2* nicotinic receptor [2]; Table 1 data, [3H]nicotine binding): 1000 fold; IC50 (α6β2* nicotinic receptor; Table 4, earlier studies, inhibition of 10 μM S(−)-nicotine, read-out: Inhibition of Nicotine-Evoked [3H]DA Overflow (IC50) α6β2*): 540 nM; more potent inhibiting the function of SERT than Compound 14 ([6]; earlier data): 19 fold; Ki ([6]; read-out: inhibition of serotonin uptake Ki): 10 to 380 nM |
| Cc1ccc(S(=O)(=O)O[C@@H](C[C@H]2CCC[C@@H](CC(=O)c3ccccc3)N2C)c2ccccc2)cc1 [Compound 2, 2S,6R,8S-2-[6-(β-Para-toluenesulfonyloxyphenethyl)-1-methyl-2-piperidyl]-acetophenone] |  |  | 11 | 4.1 |  |  | 2 |  |  |  |  | 29100 | 39000 | 1670 |  | 10800 |  | 1000 |  |
| COc1cccc(CC[C@H]2CCC[C@@H](CCc3cccc(OC)c3)N2C)c1 [Compound 39, N-methyl-2,6-cis-di-(m-methoxyphenethyl)piperidine] |  |  | > 100000 |  |  |  |  |  |  |  |  |  |  |  |  | 25500 | 430 to 680 |  |  |
